{"source": "ChEMBL document CHEMBL1142370", "about": "“Synthesis and SAR of pyridazinone-substituted phenylalanine amide alpha4 integrin antagonists” (Bioorg Med Chem Lett, 2008)", "key": {"in vivo [1]": {"test": "in vivo", "settings": "rat, po, 30 mg/kg"}, "in vivo [2]": {"test": "in vivo", "settings": "rat, po, 30 mg/kg", "remark": "listed apart in the source"}, "in vitro": {"test": "in vitro", "settings": "human, Caco-2"}}}
{"compound": "COc1cnn(C)c(=O)c1-c1ccc(C[C@H](NC(=O)c2cc(F)ccc2Cl)C(=O)OCCO)cc1", "values": [{"measurement": "Cmax", "setting": "in vivo [1]", "value": 19, "unit": "µM"}, {"measurement": "bioavailability", "setting": "in vivo [2]", "value": 5, "unit": "%"}]}
{"compound": "COc1cnn(C)c(=O)c1-c1ccc(C[C@H](NC(=O)c2cc(F)ccc2Cl)C(=O)O)cc1", "values": [{"measurement": "bioavailability", "setting": "in vivo [2]", "value": 0, "unit": "%"}]}
{"compound": "COc1cnn(C)c(=O)c1-c1ccc(C[C@H](NC(=O)c2c(Cl)cccc2Cl)C(=O)O)cc1", "values": [{"measurement": "Cmax", "setting": "in vivo [1]", "value": 0.1, "unit": "µM"}, {"measurement": "Papp A→B", "setting": "in vitro", "value": 0.13, "unit": "×10⁻⁶ cm/s"}]}
